Data from DBAASP.
In brackets after ≈: the same amount, converted by molar mass. Several values for one entry are separate records, joined by “and”; a condition that tells them apart may be missing. Identical values can stand only once.

What was measured:
Experiment in all cases: ≥ marks a high value that may be exact or a test limit, other limits are often not marked, values filed in µg/mL are converted to µM
Escherichia coli UB1005 = system: Escherichia coli UB1005
[1] = system: Staphylococcus epidermidis ATCC 12228
[2] = system: Staphylococcus aureus SAP 0017
Escherichia coli DC2 = system: Escherichia coli DC2
[3] = system: Salmonella typhimurium C610
[4] = system: Pseudomonas aeruginosa ATCC 27853
Bacillus subtilis C971 = system: Bacillus subtilis C971
[5] = system: Pseudomonas aeruginosa H188
[6] = system: Escherichia coli ATCC 25922
[7] = system: Staphylococcus aureus ATCC 25923
[8] = system: Corynebacterium xerosis C875
[9] = system: Enterococcus faecalis C625
[10] = system: Staphylococcus epidermidis C621
[11] = system: Salmonella typhimurium C587
[12] = system: Pseudomonas aeruginosa H187
[13] = system: Staphylococcus aureus ATCC 33591
[14] = system: Staphylococcus aureus 930918-3
[15] = system: Staphylococcus xylosus BCRC 12930
[16] = system: Vibrio parahaemolyticus BCRC 10806
Vibrio parahaemolyticus = system: Vibrio parahaemolyticus
[17] = system: Enterobacter cloacae BCRC 10401
Streptococcus iniae = system: Streptococcus iniae
[18] = system: Klebsiella oxytoca BCRC 13985
Vibrio alginolyticus = system: Vibrio alginolyticus
[19] = system: Staphylococcus aureus BCRC 10781
[20] = system: Vibrio alginolyticus BCRC 12829
Vibrio harveyi = system: Vibrio harveyi
[21] = system: Listeria monocytogenes BCRC 14845
[22] = system: Vibrio anguillarum serotype O1
Lactococcus garvieae = system: Lactococcus garvieae
[23] = system: Klebsiella aerogenes BCRC 10370
[24] = system: Staphylococcus aureus BCRC 10780
[25] = system: Escherichia coli BCRC 10675
[26] = system: Yersinia enterocolitica BCRC 13999
[27] = system: Streptococcus equinus BCRC 14729
[28] = system: Pseudomonas aeruginosa BCRC 10944

SMILES | MIC (Escherichia coli UB1005) [µM] | MIC [2] [µM] | MIC (Escherichia coli DC2) [µM] | MIC [3] [µM] | MIC (Bacillus subtilis C971) [µM] | MIC [5] [µM] | MIC [7] | MIC [8] [µM] | MIC [9] [µM] | MIC [10] [µM] | MIC [11] [µM] | MIC [12] [µM] | MIC [15] [µM] | MIC [17] [µM] | MIC (Streptococcus iniae) [µM] | MIC [18] [µM] | MIC (Vibrio alginolyticus) [µM] | MIC [19] [µM] | MIC [16] [µM] | MIC (Vibrio parahaemolyticus) [µM] | also measured
CC[C@H](C)[C@H](NC(=O)[C@H](CCCCN)NC(=O)[C@H](CCCCN)NC(=O)[C@H](CC(C)C)NC(=O)[C@H](CCCCN)NC(=O)[C@H](CCC(=O)O)NC(=O)[C@H](CCCCN)NC(=O)[C@@H](NC(=O)[C@@H](N)CCCCN)[C@@H](C)CC)C(=O)NCC(=O)N[C@@H](CCC(N)=O)C(=O)N[C@@H](CCCCN)C(=O)N[C@H](C(=O)N[C@@H](CCC(N)=O)C(=O)NCC(=O)N[C@@H](CC(C)C)C(=O)N[C@@H](CC(C)C)C(=O)O)[C@@H](C)CC [KIKEKLKKIGQKIQGLL] | – | – | – | – | – | – | – | – | – | – | – | – | – | – | – | – | – | – | – | – | MIC [13]: ≥ 127 µM; MIC [14]: ≥ 127 µM
CC[C@H](C)[C@H](NC(=O)CN)C(=O)N[C@@H](CCCCN)C(=O)N[C@H](C(=O)N[C@@H](C)C(=O)N[C@@H](CCCCN)C(=O)N[C@@H](CCCCN)C(=O)N[C@@H](C)C(=O)N[C@H](C(=O)N[C@H](C(=O)N[C@H](C(=O)N[C@@H](C)C(=O)N[C@@H](CCCCN)C(=O)N[C@@H](CCCCN)C(=O)N[C@H](C(=O)N[C@@H](C)C(=O)N[C@@H](CCCCN)C(=O)N[C@H](C(=O)N[C@@H](Cc1ccc(O)cc1)C(=O)N[C@@H](Cc1c[nH]c2ccccc12)C(=O)O)[C@@H](C)CC)[C@@H](C)CC)[C@@H](C)CC)[C@@H](C)O)[C@@H](C)CC)[C@@H](C)CC [GIKIAKKAITIAKKIAKIYW] | – | – | – | – | – | – | – | – | – | – | – | – | 1.77 (≈ 4 µg/mL) | 3.54 (≈ 8 µg/mL) | ≥ 56.7 | 14.2 (≈ 32 µg/mL) | 1.77 (≈ 4 µg/mL) | 14.2 (≈ 32 µg/mL) | ≥ 56.7 | 7.09 (≈ 16 µg/mL) | MIC [20]: ≥ 56.7 µM; MIC (Vibrio harveyi): 14.2 µM (≈ 32 µg/mL); MIC [21]: 14.2 µM (≈ 32 µg/mL); MIC [22]: 14.2 µM (≈ 32 µg/mL); MIC (Lactococcus garvieae): ≥ 56.7 µM; MIC [23]: 7.09 µM (≈ 16 µg/mL); MIC [24]: 14.2 µM (≈ 32 µg/mL); MIC [25]: 7.09 µM (≈ 16 µg/mL); MIC [26]: 14.2 µM (≈ 32 µg/mL); MIC [27]: ≥ 56.7 µM; MIC [28]: 7.09 µM (≈ 16 µg/mL)
CC[C@H](C)[C@H](NC(=O)[C@H](Cc1ccc(O)cc1)NC(=O)[C@H](CC(N)=O)NC(=O)[C@H](Cc1ccccc1)NC(=O)[C@@H](NC(=O)[C@H](CCCCN)NC(=O)[C@H](CCCCN)NC(=O)[C@@H](NC(=O)[C@H](CC(C)C)NC(=O)[C@H](CC(N)=O)NC(=O)[C@H](C)NC(=O)[C@H](Cc1ccccc1)NC(=O)[C@H](CCCCN)NC(=O)[C@H](CCCCN)NC(=O)[C@H](C)NC(=O)[C@H](C)NC(=O)[C@H](CC(N)=O)NC(=O)[C@H](C)NC(=O)CN)[C@@H](C)CC)[C@@H](C)CC)C(=O)N[C@@H](Cc1c[nH]c2ccccc12)C(=O)O [GANAAKKFANLIKKIFNYIW] | – | – | – | – | – | – | – | – | – | – | – | – | 6.92 (≈ 16 µg/mL) | 6.92 (≈ 16 µg/mL) | ≥ 55.4 | 13.8 (≈ 32 µg/mL) | 6.92 (≈ 16 µg/mL) | 6.92 (≈ 16 µg/mL) | 13.8 (≈ 32 µg/mL) | 6.92 (≈ 16 µg/mL) | MIC [20]: 13.8 µM (≈ 32 µg/mL); MIC (Vibrio harveyi): 3.46 µM (≈ 8 µg/mL); MIC [21]: 13.8 µM (≈ 32 µg/mL); MIC [22]: 6.92 µM (≈ 16 µg/mL); MIC (Lactococcus garvieae): ≥ 55.4 µM; MIC [23]: 6.92 µM (≈ 16 µg/mL); MIC [24]: 3.46 µM (≈ 8 µg/mL); MIC [25]: 6.92 µM (≈ 16 µg/mL); MIC [26]: ≥ 55.4 µM; MIC [27]: ≥ 55.4 µM; MIC [28]: 13.8 µM (≈ 32 µg/mL)

More lines, main results first:

MIC (Escherichia coli UB1005) [µM] | MIC [2] [µM] | MIC (Escherichia coli DC2) [µM] | MIC [3] [µM] | MIC (Bacillus subtilis C971) [µM] | MIC [5] [µM] | MIC [7] | MIC [8] [µM] | MIC [9] [µM] | MIC [10] [µM] | MIC [11] [µM] | MIC [12] [µM] | MIC [15] [µM] | MIC [17] [µM] | MIC (Streptococcus iniae) [µM] | MIC [18] [µM] | MIC (Vibrio alginolyticus) [µM] | MIC [19] [µM] | SMILES | MIC [16] [µM] | MIC (Vibrio parahaemolyticus) [µM] | also measured
0.86 (≈ 2.54 µg/mL) | 4.37 (≈ 12.9 µg/mL) | 0.86 (≈ 2.54 µg/mL) | 0.688 (≈ 2.03 µg/mL) | 0.86 (≈ 2.54 µg/mL) | 3.47 (≈ 10.2 µg/mL) | 5.5 µM and 8 µM | 0.55 (≈ 1.62 µg/mL) | 17.5 (≈ 51.5 µg/mL) | 1.38 (≈ 4.06 µg/mL) | 2.2 (≈ 6.49 µg/mL) | 2.2 (≈ 6.49 µg/mL) | – | – | – | – | – | – | CC[C@H](C)[C@H](NC(=O)[C@H](C)NC(=O)[C@H](CCCCN)NC(=O)[C@H](CC(C)C)NC(=O)[C@H](C)NC(=O)[C@@H](NC(=O)[C@H](Cc1cnc[nH]1)NC(=O)[C@H](CC(C)C)NC(=O)[C@@H](NC(=O)[C@@H](NC(=O)[C@H](CCCCN)NC(=O)[C@H](CO)NC(=O)[C@H](C)NC(=O)[C@H](CO)NC(=O)[C@H](CCCCN)NC(=O)[C@H](Cc1ccccc1)NC(=O)[C@@H](NC(=O)[C@H](CCCCN)NC(=O)[C@H](CC(C)C)NC(=O)[C@H](Cc1ccccc1)NC(=O)[C@H](CO)NC(=O)[C@H](CCCCN)NC(=O)[C@H](Cc1c[nH]c2ccccc12)NC(=O)[C@H](CCCCN)NC(C)=O)[C@@H](C)O)[C@@H](C)O)C(C)C)[C@@H](C)O)C(=O)N[C@@H](CO)C(=O)N[C@@H](CO)C(N)=O [KWKSFLKTFKSASKTVLHTALKAISS] | – | – | MIC [1]: 4 µM (≈ 11.8 µg/mL); MIC [4]: 8 µM (≈ 23.6 µg/mL); MIC [6]: 8 µM (≈ 23.6 µg/mL)
2.2 (≈ 6.49 µg/mL) | 4.37 (≈ 12.9 µg/mL) | 1.38 (≈ 4.06 µg/mL) | 1.38 (≈ 4.06 µg/mL) | 0.861 (≈ 2.54 µg/mL) | 5.51 (≈ 16.2 µg/mL) | 5.51 µM (≈ 16.2 µg/mL) | 0.689 (≈ 2.03 µg/mL) | 6.95 (≈ 20.5 µg/mL) | 1.38 (≈ 4.06 µg/mL) | 6.95 (≈ 20.5 µg/mL) | 3.48 (≈ 10.2 µg/mL) | – | – | – | – | – | – | CC[C@H](C)[C@H](NC(=O)[C@H](C)NC(=O)[C@H](CCCCN)NC(=O)[C@H](CC(C)C)NC(=O)[C@H](C)NC(=O)[C@@H](NC(=O)[C@H](Cc1cnc[nH]1)NC(=O)[C@H](CC(C)C)NC(=O)[C@@H](NC(=O)[C@@H](NC(=O)[C@H](CCCCN)NC(=O)[C@@H](NC(=O)[C@H](C)NC(=O)[C@H](C)NC(=O)[C@H](CCCCN)NC(=O)[C@H](Cc1ccccc1)NC(=O)[C@@H](NC(=O)[C@H](CCCCN)NC(=O)[C@H](CC(C)C)NC(=O)[C@H](Cc1ccccc1)NC(=O)[C@H](CO)NC(=O)[C@H](CCCCN)NC(=O)[C@H](Cc1c[nH]c2ccccc12)NC(=O)[C@H](CCCCN)NC(C)=O)[C@@H](C)O)C(C)C)[C@@H](C)O)C(C)C)[C@@H](C)O)C(=O)N[C@@H](CO)C(=O)N[C@@H](CO)C(N)=O [KWKSFLKTFKAAVKTVLHTALKAISS] | – | – | –
